Legend:
[1] = Pharmacokinetic test, subcutaneous administration to SD rats (serum ELISA, Human GDF15 Immunoassay); type: in vivo; settings: 2 mg/kg subcutaneous
Protocol: For evaluation of pharmacokinetic characteristics when each fusion polypeptide was subcutaneously administered to rats, the fusion polypeptides HT-ID1-GDF15, HT-ID2-GDF15 and HT-ID3-GDF15 were subcutaneously administered into SD rats (Koatech, male, 7-week-old, about 250 g; n=3 each; test group) in an amount of 2 mg/kg, respectively, and about 200 μl of blood was collected through the caudal vein at a predetermined time. The blood collection time was performed before administration, and 1, 2, 4, 8, 24, 48, 72, 96, 168, 240 and 336 hours after administration. As the control group for comparison of pharmacokinetic characteristics, GDF15 (R&D Systems) was subcutaneously administered in an amount of 2 mg/kg by the same method to prepare a GDF15 administration group.
After administering into SD Rats as above, blood collected by time-point was centrifuged to obtain serum, and ELISA was performed using Human GDF15 Immunoassay (SGD150, R&D Systems), and the concentration in the serum was measured depending on the time of each polypeptide.

[2] = Single administration: feed intake in DIO mice; type: in vivo, Mouse, C57BL/6J-DIO; design: unit not given here
Protocol: (§1) The pharmacological effect of the fusion polypeptides produced and purified in Example 1 above was tested in mice (C57BL/6J, 6-week-old, male, 100 mice; Raonbio).
(§2) In the present example, DI0 mouse model (Mouse, C57BL/6J-DIO, male, 100 mice, 14-week-old (obesity feed feeding for 8 weeks)) in which obesity was induced by feeding a high-fat diet into the C57BL/6J mice for 8 weeks was used.
(§3) The administration of the test substances HT-ID1-GDF15, HT-ID2-GDF15, and HT-ID3-GDF15 and the control substance Semaglutide (Bachem) was conducted from the next day after group separation, and the administration time was performed at 9 AM every day. Subcutaneous administration was conducted for all the control substance and test substances. For the administration route of the control substance and test substances, subcutaneous administration was selected depending on the clinically scheduled administration route.
(§4) For all the control substance and test substances, the amount of the administration solution was set to 5 mL/kg and the administration liquid by individual was calculated on the basis of the recently measured body weight and it was administered by subcutaneous injection once on the start day of the test using a disposable syringe (1 mL). The test substances were administered only once. For comparison, the control group in which the control substance Semaglutide was administered was prepared, and the comparison group in which Semaglutide was administered was administered once a day, and all the administration was progressed from 9 AM.
(§5) In addition, after administering the test substances into mice, the daily feed intake was measured, and the feeding amount was measured using an electronic scale for each breeding box, and the remaining amount was measured to calculate the daily feed intake. In case of an individual that gnawed heavily on heed, it was excluded from the measurement.
(§6) All the experimental results obtained in the present example were expressed as mean±standard error and tested using Prism5 (version 5.01). One-way analysis of variance (ANOVA) was performed on all data, and when significance was observed, Dunnett's test was performed to find out the test groups with a significant difference from the control group (significance level: two-sided 5% and 1%, 0.1%).

[3] = Repeated administration: body weight change in DIO mice; type: in vivo, Mouse, C57BL/6J-DIO
Protocol: The body weight of each mouse was measured on the day of the start of administration of the test substances (before administration), and thereafter, the body weight was measured every day ([…]), and the amount of the administration solution of the test substances was determined on the basis of the most recently measured body weight.
as §6
(§7) Except for the administration dose, animal number and administration cycle, most of the test processes were the same as in Example 2.1.1 above.
(§8) The test substances were administered twice a week (Days 0, 4, 7, 11, 14, 18, 21, 25) for a total of 8 times. For comparison, the control group in which the control substance Semaglutide was administered every day was prepared, and the comparison group in which Semaglutide was administered every day was administered once a day daily, and all the administration was progressed from 9 AM.

[4] = Repeated administration: feed intake in DIO mice; type: in vivo, Mouse, C57BL/6J-DIO; design: unit not given here
Protocol: as §5, §6, §7, §8

[5] = Single administration: body weight change in DIO mice; type: in vivo, Mouse, C57BL/6J-DIO; settings: for Body Weight (Group, % of initial): daily s.c. injection, mean
Protocol: as §1, §2, §3, §4
As for the observation, measurement and test schedule for the test groups, the administration start date was set to Day 0, and 7 days from the administration start date were set to one week of administration.
The body weight of each mouse was measured on the day of the start of administration of the test substances (before administration), and thereafter, the body weight was measured every day (measured up to 9 days), and the amount of the administration solution of the test substances was determined on the basis of the most recently measured body weight.
as §6

With “rhGDF15: GDF15 (R&D Systems), not fused, control group for comparison of pharmacokinetic characteristics” the half-life [1] was 19 h, the “AUCextp (%) [(AUCinf − AUClast)/AUCinf]*100” value ([1]; serum) was 0.463% and the AUClast ([1]; serum) was 4860 ng·h/mL. For the same substance, the “Cmax (maximum concentration in blood)” value ([1]; serum) was 443 ng/mL, the “Tmax (reaching time to maximum concentration in blood)” value ([1]; serum) was 1 h and the “t1/2 (loss half-life)” value ([1]; serum) was 19.0 h. It also gave an AUCinf ([1]; serum, extrapolated to infinity) of 4880 ng·h/mL.

With Semaglutide [reference compound] the “Feed intake, Mean” value ([2]; Day 0, 3 nmol/kg Daily Inj.) was 3.7, the “Feed intake, Mean” value ([2]; Day 1, 3 nmol/kg Daily Inj.) was 2.1 and the “Feed intake, Mean” value ([2]; Day 2, 3 nmol/kg Daily Inj.) was 3.3. For the same substance, the “Feed intake, Mean” value ([2]; Day 3, 3 nmol/kg Daily Inj.) was 2.8, the “Feed intake, Mean” value ([2]; Day 4, 3 nmol/kg Daily Inj.) was 2.3 and the “Feed intake, Mean” value ([2]; Day 5, 3 nmol/kg Daily Inj.) was 2.9. The “Feed intake, Mean” value ([2]; Day 6, 3 nmol/kg Daily Inj.) was 2.7, the “Feed intake, Mean” value ([2]; Day 7, 3 nmol/kg Daily Inj.) was 3.2 and the “Feed intake, Mean” value ([2]; Day 8, 3 nmol/kg Daily Inj.) was 2.4. For the same substance, the “Feed intake, Mean” value ([2]; Day 9, 3 nmol/kg Daily Inj.) was 3.7, the “Body Weight, Mean” value ([3]; Day 0, 3 nmol/kg once a day) was 100.0 % of initial and the “Body Weight, Mean” value ([3]; Day 1, 3 nmol/kg once a day) was 93.9 % of initial. For the same substance, the “Body Weight, Mean” value ([3]; Day 2, 3 nmol/kg once a day) was 92.6 % of initial, the “Body Weight, Mean” value ([3]; Day 3, 3 nmol/kg once a day) was 90.4 % of initial and the “Body Weight, Mean” value ([3]; Day 4, 3 nmol/kg once a day) was 88.4 % of initial. The “Body Weight, Mean” value ([3]; Day 5, 3 nmol/kg once a day) was 66.2 % of initial, the “Body Weight, Mean” value ([3]; Day 6, 3 nmol/kg once a day) was 64.1 % of initial and the “Body Weight, Mean” value ([3]; Day 7, 3 nmol/kg once a day) was 82.6 % of initial. For the same substance, the “Body Weight, Mean” value ([3]; Day 8, 3 nmol/kg once a day) was 61.9 % of initial, the “Body Weight, Mean” value ([3]; Day 9, 3 nmol/kg once a day) was 80.7 % of initial and the “Body Weight, Mean” value ([3]; Day 10, 3 nmol/kg once a day) was 80.3 % of initial. For the same substance, the “Body Weight, Mean” value ([3]; Day 11, 3 nmol/kg once a day) was 80.3 % of initial, the “Body Weight, Mean” value ([3]; Day 12, 3 nmol/kg once a day) was 79.1 % of initial and the “Body Weight, Mean” value ([3]; Day 13, 3 nmol/kg once a day) was 76.8 % of initial. The “Body Weight, Mean” value ([3]; Day 14, 3 nmol/kg once a day) was 76.7 % of initial, the “Body Weight, Mean” value ([3]; Day 15, 3 nmol/kg once a day) was 78.1 % of initial and the “Body Weight, Mean” value ([3]; Day 16, 3 nmol/kg once a day) was 78.3 % of initial. The “Body Weight, Mean” value ([3]; Day 17, 3 nmol/kg once a day) was 77.2 % of initial, the “Body Weight, Mean” value ([3]; Day 18, 3 nmol/kg once a day) was 76.7 % of initial and the “Body Weight, Mean” value ([3]; Day 19, 3 nmol/kg once a day) was 77.1 % of initial. For the same substance, the “Body Weight, Mean” value ([3]; Day 20, 3 nmol/kg once a day) was 76.1 % of initial, the “Body Weight, Mean” value ([3]; Day 21, 3 nmol/kg once a day) was 76.8 % of initial and the “Body Weight, Mean” value ([3]; Day 22, 3 nmol/kg once a day) was 75.9 % of initial. The “Body Weight, Mean” value ([3]; Day 23, 3 nmol/kg once a day) was 75.6 % of initial, the “Body Weight, Mean” value ([3]; Day 24, 3 nmol/kg once a day) was 76.0 % of initial and the “Body Weight, Mean” value ([3]; Day 25, 3 nmol/kg once a day) was 76.3 % of initial. The “Body Weight, Mean” value ([3]; Day 26, 3 nmol/kg once a day) was 76.5 % of initial, the “Body Weight, Mean” value ([3]; Day 27, 3 nmol/kg once a day) was 76.2 % of initial and the “Body Weight, Mean” value ([3]; Day 28, 3 nmol/kg once a day) was 75.7 % of initial. The “Feed intake, Mean” value ([4]; Day 1, 3 nmol/kg once a day) was 2.9, the “Feed intake, Mean” value ([4]; Day 2, 3 nmol/kg once a day) was 0.7 and the “Feed intake, Mean” value ([4]; Day 3, 3 nmol/kg once a day) was 1.3. For the same substance, the “Feed intake, Mean” value ([4]; Day 4, 3 nmol/kg once a day) was 1.4, the “Feed intake, Mean” value ([4]; Day 5, 3 nmol/kg once a day) was 1.7 and the “Feed intake, Mean” value ([4]; Day 6, 3 nmol/kg once a day) was 1.5. The “Feed intake, Mean” value ([4]; Day 7, 3 nmol/kg once a day) was 1.6, the “Feed intake, Mean” value ([4]; Day 8, 3 nmol/kg once a day) was 1.9 and the “Feed intake, Mean” value ([4]; Day 9, 3 nmol/kg once a day) was 2.0. For the same substance, the “Feed intake, Mean” value ([4]; Day 10, 3 nmol/kg once a day) was 2.3, the “Feed intake, Mean” value ([4]; Day 11, 3 nmol/kg once a day) was 2.2 and the “Feed intake, Mean” value ([4]; Day 12, 3 nmol/kg once a day) was 3.2. The “Feed intake, Mean” value ([4]; Day 13, 3 nmol/kg once a day) was 2.2, the “Feed intake, Mean” value ([4]; Day 14, 3 nmol/kg once a day) was 2.5 and the “Feed intake, Mean” value ([4]; Day 15, 3 nmol/kg once a day) was 2.5. For the same substance, the “Feed intake, Mean” value ([4]; Day 16, 3 nmol/kg once a day) was 2.2, the “Feed intake, Mean” value ([4]; Day 17, 3 nmol/kg once a day) was 2.4 and the “Feed intake, Mean” value ([4]; Day 18, 3 nmol/kg once a day) was 2.2. The “Feed intake, Mean” value ([4]; Day 19, 3 nmol/kg once a day) was 2.6, the “Feed intake, Mean” value ([4]; Day 20, 3 nmol/kg once a day) was 2.6 and the “Feed intake, Mean” value ([4]; Day 21, 3 nmol/kg once a day) was 2.5. For the same substance, the “Feed intake, Mean” value ([4]; Day 22, 3 nmol/kg once a day) was 2.9, the “Feed intake, Mean” value ([4]; Day 23, 3 nmol/kg once a day) was 2.0 and the “Feed intake, Mean” value ([4]; Day 24, 3 nmol/kg once a day) was 2.4. The “Feed intake, Mean” value ([4]; Day 25, 3 nmol/kg once a day) was 2.9, the “Feed intake, Mean” value ([4]; Day 26, 3 nmol/kg once a day) was 2.4 and the “Feed intake, Mean” value ([4]; Day 27, 3 nmol/kg once a day) was 2.4. The “Feed intake, Mean” value ([4]; Day 28, 3 nmol/kg once a day) was 2.7, the “body weight loss effect” value ([5]; 3 nmol/kg daily s.c. administration) was “body weight loss effect was continuously shown from Day 1 after administration” and the “Body Weight (Group, % of initial)” value ([5]; Day 0, 3 nmol/kg) was 100 % of initial. For the same substance, the “Body Weight (Group, % of initial)” value ([5]; Day 1, 3 nmol/kg) was 94 % of initial, the “Body Weight (Group, % of initial)” value ([5]; Day 2, 3 nmol/kg) was 91 % of initial and the “Body Weight (Group, % of initial)” value ([5]; Day 3, 3 nmol/kg) was 90 % of initial. For the same substance, the “Body Weight (Group, % of initial)” value ([5]; Day 4, 3 nmol/kg) was 87 % of initial, the “Body Weight (Group, % of initial)” value ([5]; Day 5, 3 nmol/kg) was 87 % of initial and the “Body Weight (Group, % of initial)” value ([5]; Day 6, 3 nmol/kg) was 85 % of initial. For the same substance, the “Body Weight (Group, % of initial)” value ([5]; Day 7, 3 nmol/kg) was 86 % of initial, the “Body Weight (Group, % of initial)” value ([5]; Day 8, 3 nmol/kg) was 83 % of initial and the “Body Weight (Group, % of initial)” value ([5]; Day 9, 3 nmol/kg) was 85 % of initial.
